In patent US12685312B2, “Sulfonamide apyrase inhibitors” (Texas Crop Science, Inc., priority 2022, dated 2026):

tested on: apyrase; experiment: Screen for apyrase inhibitors (Method 1, in vitro phosphate-release absorbance assay); assay type: biochemical; details: inhibitor conc at 1 mM stock, 1 hr room temperature, absorbance 630 nm; rounded average of two assay results
Method in brief: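 Phosphate-release colorimetric assay (Windsor method) in 60 mM Hepes, 3 mM MgCl2, 3 mM CaCl2, 3 mM ATP, pH 6.5, with compound or DMSO control added. Released phosphate developed with ammonium molybdate and ascorbic acid/TCA, then stopped with citrate/acetic acid.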

First: Cc1ccc(NC(=O)c2ccc(S(=O)(=O)Nc3ccc(Cl)cc3)cc2)cc1S(=O)(=O)N(C)C [I-390, 4-(N-(4-chlorophenyl)sulfamoyl)-N-(3-(N,N-dimethylsulfamoyl)-4-methylphenyl)benzamide]
Second: COc1ccc(NS(=O)(=O)c2ccc(NC(=O)c3cccc(S(=O)(=O)N(C)C)c3)cc2)cc1 [I-991, 3-(N,N-dimethylsulfamoyl)-N-(4-(N-(4-methoxyphenyl)sulfamoyl)phenyl)benzamide]
The “% Inhibition of Apyrase” value of the first is higher: 62% for the first, 53% for the second.

Compared with `Cc1ccc(NC(=O)c2ccc(NS(=O)(=O)c3ccccc3)cc2)cc1C` [I-917, N-(3,4-dimethylphenyl)-4-(phenylsulfonamido)benzamide], `Cc1ccc(NC(=O)c2ccc(NS(=O)(=O)c3ccc(F)cc3)cc2)c(C)c1` [I-951, N-(2,4-dimethylphenyl)-4-((4-fluorophenyl)sulfonamido)benzamide] is lower in “% Inhibition of Apyrase” value: 58% for the first, 38% for the second.

First: NC(=O)c1ccc(NC(=O)c2cccc(S(=O)(=O)N3CCc4ccccc43)c2)cc1 [I-607, N-(4-carbamoylphenyl)-3-(indolin-1-ylsulfonyl)benzamide]
Second: O=C(Nc1ccc(Cl)cc1)c1cccc(S(=O)(=O)N2CCc3ccccc32)c1 [I-503, N-(4-chlorophenyl)-3-(indolin-1-ylsulfonyl)benzamide]
The “% Inhibition of Apyrase” value of the first is lower: 16% for the first, 57% for the second.

Going from `O=C(Nc1ccc2c(c1)OCCCO2)c1cccc(S(=O)(=O)Nc2ccc3c(c2)OCCO3)c1` [I-573, N-(3,4-dihydro-2H-benzo[b][1,4]dioxepin-7-yl)-3-(N-(2,3-dihydrobenzo[b][1,4]dioxin-6-yl)sulfamoyl)benzamide] to `O=C(Nc1ccc(F)c(Cl)c1)c1cccc(S(=O)(=O)Nc2ccc3c(c2)OCO3)c1` [I-190, 3-(N-(benzo[d][1,3]dioxol-5-yl)sulfamoyl)-N-(3-chloro-4-fluorophenyl)benzamide], the “% Inhibition of Apyrase” value rises from 50% to 73%.

Compared with `O=C(Nc1ccc2c(c1)OCO2)c1ccc(NS(=O)(=O)c2ccc(F)cc2)cc1` [I-939, N-(benzo[d][1,3]dioxol-5-yl)-4-((4-fluorophenyl)sulfonamido)benzamide], `O=C(Nc1ccc2c(c1)OCO2)c1ccc(NS(=O)(=O)c2cccc(F)c2)cc1` [I-953, N-(benzo[d][1,3]dioxol-5-yl)-4-((3-fluorophenyl)sulfonamido)benzamide] is lower in “% Inhibition of Apyrase” value: 50% for the first, 26% for the second.

`COc1ccccc1NS(=O)(=O)c1cccc(C(=O)Nc2cccc(C(F)(F)F)c2)c1` [I-266, 3-(N-(2-methoxyphenyl)sulfamoyl)-N-(3-(trifluoromethyl)phenyl)benzamide] and `Cc1ccc(NC(=O)c2ccccc2NS(=O)(=O)c2cccc(C(F)(F)F)c2)cc1` [I-231, N-(p-tolyl)-2-((3-(trifluoromethyl)phenyl)sulfonamido)benzamide] are the same in “% Inhibition of Apyrase” value: 58% for the first, 58% for the second.

First: CSc1cccc(NC(=O)c2ccc(C(=O)Nc3cccc(SC)c3)cc2)c1 [I-861, N1,N4-bis(3-(methylthio)phenyl)terephthalamide]
Second: Cc1ccc(NS(=O)(=O)c2cccc(C(=O)Nc3cccc(S(N)(=O)=O)c3)c2)cc1 [I-1008, N-(3-sulfamoylphenyl)-3-(N-(p-tolyl)sulfamoyl)benzamide]
The “% Inhibition of Apyrase” value of the first is higher: 68% for the first, 29% for the second.

Going from `O=C(Nc1cccc(S(=O)(=O)Nc2ccccc2Cl)c1)c1cnc(Cl)c(Cl)c1` [I-756, 5,6-dichloro-N-(3-(N-(2-chlorophenyl)sulfamoyl)phenyl)nicotinamide] to `O=C(Nc1cccc(S(=O)(=O)Nc2cccc(Cl)c2)c1)c1ccccn1` [I-741, N-(3-(N-(3-chlorophenyl)sulfamoyl)phenyl)picolinamide], the “% Inhibition of Apyrase” value rises from 30% to 50%.

Compared with `CN(c1ccccc1)S(=O)(=O)c1cccc(NC(=O)c2cncc(Br)c2)c1` [I-720, 5-bromo-N-(3-(N-methyl-N-phenylsulfamoyl)phenyl)nicotinamide], `CN(c1ccccc1)S(=O)(=O)c1cccc(NC(=O)c2cccs2)c1` [I-710, N-(3-(N-methyl-N-phenylsulfamoyl)phenyl)thiophene-2-carboxamide] is higher in “% Inhibition of Apyrase” value: 58% for the first, 60% for the second.

First: N#Cc1cccc(NC(=O)c2cccc(NS(=O)(=O)c3ccc(Cl)c(Cl)c3)c2)c1 [I-316, N-(3-cyanophenyl)-3-((3,4-dichlorophenyl)sulfonamido)benzamide]
Second: O=C(Nc1cccc(C(F)(F)F)c1)c1cccc(NS(=O)(=O)c2ccc(Br)c(C(=O)O)c2)c1 [I-322, 2-bromo-5-(N-(3-((3-(trifluoromethyl)phenyl)carbamoyl)phenyl)sulfamoyl)benzoic acid]
The “% Inhibition of Apyrase” value of the first is higher: 69% for the first, 47% for the second.

First: Cc1c(NC(=O)c2cccc(S(=O)(=O)Nc3ccc4c(c3)OCO4)c2)cccc1[N+](=O)[O-] [I-10, 3-(N-(benzo[d][1,3]dioxol-5-yl)sulfamoyl)-N-(2-methyl-3-nitrophenyl)benzamide]
Second: O=C(Nc1cccc(S(=O)(=O)Nc2ccc(Br)cc2)c1)c1ccc2c(c1)OCO2 [I-232, N-(3-(N-(4-bromophenyl)sulfamoyl)phenyl)benzo[d][1,3] dioxole-5-carboxamide]
The “% Inhibition of Apyrase” value of the first is lower: 60% for the first, 65% for the second.

Going from `CC1Cc2ccccc2N1S(=O)(=O)c1cccc(C(=O)N2CCc3cccc(F)c32)c1` (stereo not shown) [I-494, (7-fluoroindolin-1-yl)(3-((2-methylindolin-1-yl)sulfonyl)phenyl)methanone] to `COc1ccc(N(C)S(=O)(=O)c2cccc(C(=O)N3CCc4ccccc43)c2)cc1` [I-540, 3-(indoline-1-carbonyl)-N-(4-methoxyphenyl)-N-methylbenzenesulfonamide], the “% Inhibition of Apyrase” value falls from 57% to 54%.

Going from `COc1cc(OC)c(NS(=O)(=O)c2ccc(C)c(C(=O)N3CCc4ccccc43)c2)cc1Cl` [I-570, N-(5-chloro-2,4-dimethoxyphenyl)-3-(indoline-1-carbonyl)-4-methylbenzenesulfonamide] to `COc1cc(C)c(NC(=O)c2cccc(S(=O)(=O)N3CCc4ccccc43)c2)cc1OC` [I-605, N-(4,5-dimethoxy-2-methylphenyl)-3-(indolin-1-ylsulfonyl)benzamide], the “% Inhibition of Apyrase” value falls from 51% to 23%.

Going from `Cc1cccc(NC(=O)c2ccc(NS(=O)(=O)c3ccc4c(c3)OCCO4)cc2)c1` [I-949, 4-((2,3-dihydrobenzo[b][1,4]dioxine)-6-sulfonamido)-N-(m-tolyl)benzamide] to `O=C(Nc1ccc(Br)cc1)c1cccc(S(=O)(=O)Nc2cccc([N+](=O)[O-])c2)c1` [I-24, N-(4-bromophenyl)-3-(N-(3-nitrophenyl)sulfamoyl)benzamide], the “% Inhibition of Apyrase” value falls from 42% to 29%.

Compared with `CCOC(=O)c1c(NC(=O)c2cccc(S(=O)(=O)Nc3ccc(Cl)cc3)c2)sc2c1CCCC2` [I-506, ethyl 2-(3-(N-(4-chlorophenyl)sulfamoyl)benzamido)-4,5,6,7-tetrahydrobenzo[b]thiophene-3-carboxylate], `CCOC(=O)c1sc(NC(=O)c2cccc(S(=O)(=O)Nc3ccc(F)cc3)c2)cc1C` [I-431, ethyl 5-(3-(N-(4-fluorophenyl)sulfamoyl)benzamido)-3-methylthiophene-2-carboxylate] is higher in “% Inhibition of Apyrase” value: 57% for the first, 68% for the second.

First: O=C(Nc1ccccc1NS(=O)(=O)c1cccs1)c1cc(Br)ccc1F [I-835, 5-bromo-2-fluoro-N-(2-(thiophene-2-sulfonamido)phenyl)benzamide]
Second: COc1ccc(NS(=O)(=O)c2cccc(NC(=O)c3cccs3)c2)cc1 [I-771, N-(3-(N-(4-methoxyphenyl)sulfamoyl)phenyl)thiophene-2-carboxamide]
The “% Inhibition of Apyrase” value of the first is higher: 52% for the first, 6% for the second.

Compared with `O=C(Nc1cccc(C(F)(F)F)c1)c1cccc(NS(=O)(=O)c2ccc(Cl)s2)c1` [I-634, 3-((5-chlorothiophene)-2-sulfonamido)-N-(3-(trifluoromethyl)phenyl)benzamide], `O=C(Nc1cccc(S(=O)(=O)Nc2cccc(C(F)(F)F)c2)c1)c1ccoc1` [I-762, N-(3-(N-(3-(trifluoromethyl)phenyl)sulfamoyl)phenyl) furan-3-carboxamide] is lower in “% Inhibition of Apyrase” value: 59% for the first, 16% for the second.

First: O=C(c1ccccc1NS(=O)(=O)c1cccc(C(F)(F)F)c1)N1CCc2ccccc21 [I-375, N-(2-(indoline-1-carbonyl)phenyl)-3-(trifluoromethyl)benzenesulfonamide]
Second: CN(C)S(=O)(=O)c1cccc(NC(=O)c2cccc(S(=O)(=O)N3CCc4ccccc43)c2)c1 [I-550, N-(3-(N,N-dimethylsulfamoyl)phenyl)-3-(indolin-1-ylsulfonyl)benzamide]
The “% Inhibition of Apyrase” value of the first is lower: 43% for the first, 53% for the second.

First: N#Cc1cccc(NC(=O)c2ccc(Cl)c(S(=O)(=O)N3CCc4ccccc43)c2)c1 [I-462, 4-chloro-N-(3-cyanophenyl)-3-(indolin-1-ylsulfonyl)benzamide]
Second: O=C(Nc1ccc2[nH]c(=O)[nH]c2c1)c1cccc(S(=O)(=O)N2CCc3ccccc32)c1 [I-598, 3-(indolin-1-ylsulfonyl)-N-(2-oxo-2,3-dihydro-1H-benzo[d]imidazol-5-yl)benzamide]
The “% Inhibition of Apyrase” value of the first is higher: 59% for the first, 31% for the second.

First: O=C(Nc1cc(Cl)ccc1N1CCOCC1)c1cccc(S(=O)(=O)N2CCc3ccccc32)c1 [I-549, N-(5-chloro-2-morpholinophenyl)-3-(indolin-1-ylsulfonyl)benzamide]
Second: CN(c1ccccc1)S(=O)(=O)c1ccc(C(=O)N2CC(=O)Nc3ccccc32)cc1 [I-890, N-methyl-4-(3-oxo-1,2,3,4-tetrahydroquinoxaline-1-carbonyl)-N-phenylbenzenesulfonamide]
The “% Inhibition of Apyrase” value of the first is higher: 53% for the first, 32% for the second.
